# In paper PMC6382835, “A critical evaluation of TRPA1-mediated locomotor behavior in zebrafish as a screening tool for novel anti-nociceptive drug discovery” (Scientific Reports, 2019):
# What was measured:
# [1] = system: non-transfected HEK293 cells; experiment: FLIPR calcium signaling assay in non-transfected HEK293 cells (off-target effect); assay type: cell-based
# [2] = system: C57BL/6 mice; experiment: Von Frey test of mechanical hypersensitivity; assay type: in vivo, Mice (Mus musculus)
# Method: We utilized WT C57BL/6 mice purchased from Envigo (Indianapolis, IN, USA). Total sixteen adult male mice (8–9 weeks, 22 ± 2 g) were housed in four ventilated Plexiglas cages (4 mice per cage). Four mice were tested in each group. Mice are maintained at temperature (21 °C) in an animal housing facility accredited by the Association for Assessment and Accreditation of Laboratory Animal Care with a reversed 12-hour dark-light cycle (lights off at 1000, lights on at 2200). This study was carried out in accordance with the recommendations of the National Institutes of Health Guide for the Care and Use of Laboratory Animals. The protocol (#1201000592 by Y.F.L. for Zebrafish, and #1605001408 by R.M.vR for mice) was approved by the Purdue University Institutional Animal Care and Use Committee.
# Von Frey filaments (2.44 (0.04 g)–4.31 (2 g)) and a grid platform (#58011 and #57816, Stoelting, WI, USA) were used to test mechanical hypersensitivity of mice. A modified up-and-down method was utilized as previously described. […] Drug-induced mechanical hypersensitivity was measured 30 minutes after the second injection. […]
# All data are presented as means ± standard error of the mean (SEM). For our in vitro statistical analysis, AUC of calcium influx (RFU) was measured to plot dose-response curves, which were further analyzed by nonlinear regression analysis. […] EC50 values of the dose-response curves were further used to plot Schild curves, and the curves were analyzed with linear regression analysis. For the mice von Frey test, mechanical thresholds were analyzed with two-way ANOVA followed by a Bonferonni test for multiple comparison analysis. […] AUC of all curves were measured and analyzed by one-way ANOVA. […] For our time-course average displacement graph, we used 2nd degree polynomial smoothing for a better representation; however, we used data before smoothing for all statistical analysis and quantification. All in vitro and in vivo data were evaluated using GraphPad Prism 7 (GraphPad Software, La Jolla, CA) unless it stated otherwise.
Compound,pEC50 (off-target calcium response) [1],EC50 ([1]; read-out: EC50 (off-target calcium response)) [µM],"mechanical thresholds of von Frey filaments, pre- vs post-drug ([2]; ASP7663 1 mg/kg i.p., measured 30 minutes after injection)",calcium influx by antagonist alone [1],block of ASP7663-induced mechanical hypersensitivity ([2]; HC-030031 100 mg/kg p.o. 30 min before ASP7663 1 mg/kg i.p.),"mechanical thresholds of von Frey filaments, pre- vs post-drug ([2]; HC-030031 100 mg/kg p.o. alone)"
CC(C)CN1C(=O)/C(=C/C(=O)O)c2cccc(F)c21 [ASP7663],4.27 ± 0.03,54.1,significantly decreased mechanical thresholds,,,
CC(C)c1ccc(NC(=O)Cn2cnc3c2c(=O)n(C)c(=O)n3C)cc1 [HC-030031],,,,did not observe any calcium influx,blocked mechanical hypersensitivity induced by ASP7663,did not show a statistical significance between pre- and post-drug mechanical thresholds
